The subject of one experiment is TAMCs. Briefly: apoptotic effect on myeloid cell populations. Format: cell-based.
The subject of another experiment is CD4 T cells. Briefly: mixed lymphocyte reaction (MLR) with TAMs as stimulator cells (FIG. 1c,d). The following applies: treated TAMs as stimulators; 5 days. Format: cell-based, mouse. The method, then: MLR were carried out following standard procedures. Briefly, 100,000 MDSCs or TAMs from C57BL/6 mice were co-cultured in 96-well plates with 100,000 lymphocytes from BALB/c mice. Co-cultured cells were treated with 50 µM oleuropein and compared with control vehicle. After 5 days, T-lymphocyte activation, differentiation and proliferation were assessed by flow cytometry. T-cell activation and proliferation markers (Ki-67) and pro-inflammatory cytokine production (IL-2 and IFNγ) were evaluated by flow cytometry in CD4 and CD8 T cells as described before.
Surface and intracellular staining were carried out as described before with the following fluorochrome-conjugated antibody clones: AF488 anti-CD49d (R1-2), PE anti-CD4 (GK1.5), APCanti-CD8(53-6.7), brilliant Violet 510™ anti-I-A/I-E (M5/114.15.2,PE/Cyanine7anti-Ly-6G (1A8), and APC anti-CD80 (16-10A1) (Biolegend), FITC anti-IL-12 (C15.6) and BV421 anti-IL-2 (JES6-5H4) (BD Bioscience), APC-Vio® 770 anti-Ly-6C (REA796), PE REAfinity™ anti-F4/80 (REA126), and APC anti-CD68 (REA886) (Miltenyi), PerCP-Cyanine5.5 Anti-Human/Mouse CD11b (M1/70) (Tonbo), and AF488 anti-IFNγ (Clone XMG1.2) (BD Pharmigen). […]

For experiment [1], the system named is TAMs. Briefly: ex vivo differentiated TAMs treated with compound, marker expression by flow cytometry (FIG. 1b). Format: cell-based, mouse. The following applies: oleuropein 50 μM. The method, then: (§1) Immunosuppressive myeloid cell subsets resembling tumor-infiltrating subsets (g-MDSCs, m-MDSCs and TAMs) were differentiated from mouse bone marrow following published procedures using conditioning medium produced by LLC tumor cells stably expressing GMCSF and MCSF cells. g- and m-MDSCs were purified using the myeloid-derived suppressor cell isolation kit (Miltenyi Biotec, Bergisch, Germany) according to manufacturer's recommendations. MDSCs and TAMs were seeded with 500 nM BML-275 or 50 μM oleuropein and incubated for seven days.
Surface and intracellular staining were carried out as described before with the following fluorochrome-conjugated antibody clones: AF488 anti-CD49d (R1-2), PE anti-CD4 (GK1.5), APCanti-CD8(53-6.7), brilliant Violet 510™ anti-I-A/I-E (M5/114.15.2,PE/Cyanine7anti-Ly-6G (1A8), and APC anti-CD80 (16-10A1) (Biolegend), FITC anti-IL-12 (C15.6) and BV421 anti-IL-2 (JES6-5H4) (BD Bioscience), APC-Vio® 770 anti-Ly-6C (REA796), PE REAfinity™ anti-F4/80 (REA126), and APC anti-CD68 (REA886) (Miltenyi), PerCP-Cyanine5.5 Anti-Human/Mouse CD11b (M1/70) (Tonbo), and AF488 anti-IFNγ (Clone XMG1.2) (BD Pharmigen). For human cells, it was used the following fluorochrome-conjugated antibodies: PerCP-Cy5.5-anti-CD11b (integrina alfa M) (M1/70), Violet Fluor 450 anti-CD14 antibody (61D3) (Tonbo), PE anti-CD115 (CSF-1R) (9-4D2-1E4) (Biolegend), PE-Cy™7 anti-CD11c (Clone B-ly6) (BD Bioscience), and APC anti-HLA-DR (REA517) (Miltenyi).
Data were collected using the FACSCanto Flow Cytometer (BD Biosciences) for ex vivo and in vitro experiments at Navarrabiomed Biomedical Research Center and Cyroflex LX flow cytometer (Beckman Counter). Data were analyzed with Flowjo.

The subject of experiment [2] is TAMs. Briefly: quantitative proteomics and Ingenuity Pathway Analysis of TAM. Format: cell-based, mouse. The method, then: as §1
A unique proteomic experiment was carried out with five biological replicates per sample (m-MDSC, g-MDSC and TAM). Cells were homogenized in a lysis buffer containing 7 M urea, 2 M thiourea 50 mM DTT. The homogenates were spun down at 14000 g for 1 h at 15 °C. Before proteomic analysis, protein extracts were diluted with Laemmli sample buffer in 100 μL and loaded into a 0.75 mm thick polyacrylamide gel with a 4% stacking gel casted over a 12.5% resolving gel. The run was stopped as soon as the front entered 3 mm into the resolving gel so that the whole proteome became concentrated in the stacking/resolving gel interface. Bands were stained with Coomassie Brilliant Blue, excised from the gel and protein enzymatic cleavage was carried out with trypsin (Promega; 1:20, w/w) at 37 °C for 16 h as previously described. Purification and concentration of peptides was performed using C18 Zip Tip Solid Phase Extraction (Millipore).
Peptide mixtures were separated by reverse phase chromatography using an UltiMate 3000 UHLPC System (Thermo Scientific) fitted with an Aurora packed emitter column (lonopticks, 25 cm×75 μm ID, 1.6 μm C18). Samples were first loaded for desalting and concentration into an Acclaim PepMap column (ThermoFisher, 0.5 cm×300 μm ID, 5 μm C18) packed with the same chemistry as the separating column. Mobile phases were 100% water 0.1% formic acid (FA) (buffer A) and 100% Acetonitrile 0.1% FA (buffer B). Column gradient was developed in a 120 min two step gradient from 5% B to 20% B in 90 min and 20% B to 32% B in 30 min. Column was equilibrated in 95% B for 10 min and 5% B for 20 min. During the whole process, the precolumn was in line with the column and the flow maintained all along the gradient at 300 nl/min. The column temperature was maintained at 40 °C using an integrated column oven (PRSO-V2, Sonation, Biberach, Germany) and interfaced online with the Orbitrap Exploris 480 MS. Spray voltage were set to 2 kV, funnel RF level at 40, and heated capillary temperature at 300 °C. For DDA experiments full MS resolutions were set to […] at m/z 200 and full MS AGC target was set to Standard with an IT mode Auto. Mass range was set to 375-1500. AGC target value for fragment spectra was set to Standard with a resolution of 15,000 and 3 seconds for cycle time. The intensity threshold was kept at 8E3. Isolation width was set at 1.4 m/z. Normalized collision energy was set at 30%. All data were acquired in centroid mode using positive polarity and peptide match was set to off, and isotope exclusion was on.
Raw files were processed with MaxQuant v1.6.17.0 using the integrated Andromeda Search engine. All data were searched against a target/decoy version of the mouse Uniprot Reference Proteome with March 2021 release. First search peptide tolerance was set to 20 ppm, main search peptide tolerance was set to 4.5 ppm. Fragment mass tolerance was set to 20 ppm. Trypsin was specified as enzyme, […] carbamidomethylation of cysteine was specified as fixed modification and peptide N-terminal acetylation, oxidation of methionine, deamidation of asparagine and glutamine and pyro-glutamate formation from glutamine and glutamate were considered variable modifications with a total of two variable modifications per peptide. […]

The structures appear in SMILES notation. “Also recorded” adds a separate entry of the source.

As to `C/C=C1/[C@H](O[C@@H]2O[C@H](CO)[C@@H](O)[C@H](O)[C@H]2O)OC=C(C(=O)OC)[C@H]1CC(=O)OCCc1ccc(O)c(O)c1` [oleuropein], the apoptotic effect result with TAMCs is listed as “does not provide any apoptotic effect”. Moreover, the “CD4 T cell stimulation assessed by IFNγ and IL-2 production” value with CD4 T cells is “potently stimulated”. Further, the “cells co-expressing MHC-II and CD80” value with TAMs [1] (BML-275 500 nM, TAMs) is “significant elevation”. In addition, the “polarization of TAMs” value in the experiment with TAMs [1] was “polarized MDSCs and TAMs into activated myeloid cells; also recorded: polarized TAMs to activated macrophages”. For the same compound, in the experiment on TAMs [1] (TAMs), the IL-12 production result was “upregulated IL-12 production only in the presence of oleuropein”. The “activated macrophages and pro-inflammatory activities of macrophages” value with TAMs [2] was “enhances”. In the experiment on TAMs [2] (IPA), the BAG2 signalling result was “downregulated”, the EIF2 signalling result is on record as “upregulated”, the Flt3 signalling entry is “upregulated” and the “For-mediated (Fcr-mediated) phagocytosis signalling” value is “upregulation”. Besides, in the experiment on TAMs [2] (IPA), the Hif1a signalling entry is “downregulated”, the fmlp signalling entry was “upregulated”, the immunosuppressive markers entry is on record as “downregulation” and the mTOR signalling entry is given as “downregulated”. In addition, the “For-mediated (Fcr-mediated) phagocytosis signalling” value in the experiment on TAMs [2] (IPA, listed as Oleuropein) was “upregulated”.
